Measurements reported in patent publication US20060084688A1, “Aromatic sulfone hydroxamic acid metalloprotease inhibitor” (priority 1997, published 2006).

Key:
[1] = system: neovascularization of the corneal stroma; assay: In vivo angiogenesis assay (corneal micropocket, bFGF/sucralfate Hydron pellet); design: species or system C57Bl/6 female mouse; conditions: 50 mpk bid, po; scored at day five; average of n studies
Protocol: The study of angiogenesis depends on a reliable and reproducible model for the stimulation and inhibition of a neovascular response. The corneal micropocket assay provides such a model of angiogenesis in the cornea of a mouse. See, A Model of Angiogenesis in the Mouse Cornea; Kenyon, BM, et al., Investigative Ophthalmology & Visual Science, July 1996, Vol. 37, No. 8.
In this assay, uniformLy sized Hydron™ pellets containing bFGF and sucralfate were prepared and surgically implanted into the stroma mouse cornea adjacent to the temporal limbus. […]
Mice were dosed on a daily basis for the duration of the assay. […] At day five, the degree of angiogenic inhibition was scored by viewing the neovascular progression with a slit lamp microscope.
The mice were anesthetized and the studied eye was once again proptosed. The maximum vessel length of neovascularization, extending from the limbal vascular plexus toward the pellet was measured. In addition, the contiguous circumferential zone of neovascularization was measured as clock hours, where 30 degrees of arc equals one clock hour. The area of angiogenesis was calculated as follows. […]
Five to six mice were utilized for each compound in each study. The studied mice were thereafter compared to control mice and the difference in the area of neovascularization was recorded as an averaged value. […]

[2] = system: PC-3 human pancreatic cancer cells (ATCC CRL 1435); assay: In vivo PC-3 tumor reduction; design: species or system Balb/c nu/nu mice; conditions: day 0 to day 25-30, average of n studies
Protocol: PC-3 human pancreatic cancer eclls (ATCC CRL 1435) were grown to 90% confluence in F12/MEM (Gibco) containing 7% FBS (Gibco). Cells were mechanically harvested using a rubber scraper, and then washed twice with cold medium. The resulting cells were resuspended in cold medium with 30% matrigel (Collaborative Research) and the cell-containing medium was maintained on ice until used.
Balb/c nu/nu mice at 7-9 weeks of age were anesthetized with avertin [2,2,2-tribromethanol/t-amyl alcohol (1 g/l mL) diluted 1:60 into phosphate-buffered sline] and 3-5×10^6 of the above cells in 0.2 mL of medium were injected into the left flank of each mouse. Cells were injected in the morning, whereas dosing with an inhibitor began at 6 PM. The animals were gavaged BID from day zero (cell injection day) to day 25-30, at which time the animals were euthanized and tumors weighed.
Compounds were dosed at 10 mg/mL in 0.5% methylcellulose/0.1% polysorbate 80 to provide a 50 mg/kg (mpk) dose twice each day, or diluted to provide a 10 mg/kg (mpk) dose twice each day. Tumor measurements began on day 7 and continued every third or fourth day until completion of the study. Groups of ten mice were used in each study and nine to ten survived. Each group of mice so studied constitutes an “n” value of one, so that “n” values greater than one represent multiple studies whose averaged result is provided in the table. […]

[3] = system: advanced, rapidly progressive, treatment-refractory solid tumor cancers (colorectal, pancreatic, ovarian, prostate); conditions: Phase I/II, cited from earlier work

For `CNC(=O)[C@@H](NC(=O)[C@H](CC(C)C)[C@H](O)C(=O)NO)C(C)(C)C` [marimastat], the “Inhibition of Angiogenesis (area of neovascularization vs control)” value [1] was 48 (n = 6) percent, the “Average Percentage Reduction In Tumor Weight” value ([2]; 10 mpk BID gavage) was <5% and the “Average Percentage Reduction In Tumor Weight” value ([2]; 50 mpk BID gavage) was 39 (n = 2) percent. The “most common drug-related toxicity” value ([3]; clinical trials) was “musculoskeletal pain and stiffness” and the “cancer-specific antigens used as surrogate markers for biological activity” value ([3]; patients with advanced solid tumor cancers) was “dose-related reduction in the rise of cancer-specific antigens”.
